83 molecules from PubChem BioAssay AID1117350 (Cheminformatics & Chemogenomics Research Group (CCRG), …, 2015) can be followed below.

SMILES strings stand for the structures. Calls of active or inactive are those of the source. How the calls were made is not given here.

For the assay, the system named is HeLa, chromatin condensation phenotype imaging. Kind of assay: HeLa chromatin condensation increase, dose response, imaging, IC50 (AID 1117350).
As usually defined, the IC50 is the concentration that gives 50% inhibition. For the molecule `O=Cc1ccc(O)c(O)c1O`, the IC50 is > 10 µM (inactive).
Consider `CCCCCCC[N+](CC)(CC)CCCCc1ccc(Cl)cc1`, for which the IC50 was > 10 µM (inactive).
The same measure for `O=C1C(=O)c2ccccc2C(O)=C1C1CCC(c2ccc(Cl)cc2)CC1` (stereo not drawn): > 10 µM (inactive); for `CCCSc1ccc2nc(NC(=O)OC)[nH]c2c1`: 0.0615 µM; for `O=C(Nc1ccc([N+](=O)[O-])cc1Cl)c1cc(Cl)ccc1O`: > 10 µM (inactive).
Under `CCOc1ccc2nc3cc(N)ccc3c(N)c2c1` stands > 10 µM (inactive).
Take `COc1cc(-c2ccc(=O)[nH]n2)ccc1OC(F)F`: the IC50 is > 10 µM (inactive).
As to `Cc1cc2c(C(C)C)c(O)c(O)c(C=O)c2c(O)c1-c1c(C)cc2c(C(C)C)c(O)c(O)c(C=O)c2c1O`, the IC50 is > 10 µM (inactive).
Under `O=C(O)CN(CCN(CC(=O)O)CC(=O)O)CCN(CC(=O)O)CC(=O)O` stands > 10 µM (inactive); under `Cc1nc(Nc2ncc(C(=O)Nc3c(C)cccc3Cl)s2)cc(N2CCN(CCO)CC2)n1`, > 10 µM (inactive).
Take `CO[C@@H]1[C@@H](OC)[C@H](C)[C@@](O)(CC(=O)O)O[C@H]1[C@H](C)[C@H]1O[C@@]2(CC[C@@](C)([C@H]3CC[C@@](C)([C@@H]4O[C@@H]([C@H]5O[C@](C)(O)[C@H](C)C[C@@H]5C)C[C@@H]4OC4C[C@H](OC)[C@@H](OC)[C@H](C)O4)O3)O2)C[C@H](O)[C@H]1C` (stereo partly drawn): the IC50 was > 10 µM (inactive).
With `Fc1ccc(C(OCCN2CCN(CCCc3ccccc3)CC2)c2ccc(F)cc2)cc1`, the IC50 was > 10 µM (inactive).
Under `CC(=O)N(O)CCCCCNC(=O)CCC(=O)N(O)CCCCCNC(=O)CCC(=O)N(O)CCCCCN` stands > 10 µM (inactive).
Under `C=CC(=O)Nc1cc2c(Nc3ccc(F)c(Cl)c3)ncnc2cc1OCCCN1CCOCC1` stands 4.29 µM.
Consider `O[C@@H](CNC[C@H](O)[C@H]1CCc2cc(F)ccc2O1)[C@@H]1CCc2cc(F)ccc2O1`, for which the IC50 is > 10 µM (inactive).
Under `CCCCCCCCCCCCCCCCNc1ccc(C(=O)O)cc1` stands > 10 µM (inactive); under `CC(C)C[C@H](NC(=O)[C@H](CCc1ccccc1)NC(=O)CN1CCOCC1)C(=O)N[C@@H](Cc1ccccc1)C(=O)N[C@@H](CC(C)C)C(=O)[C@@]1(C)CO1`, > 10 µM (inactive).
Under `S=c1nc[nH]c2nc[nH]c12` stands > 10 µM (inactive).
On to `O=c1[nH]cc(F)c(=O)[nH]1`, for which the IC50 is > 10 µM (inactive).
Under `COc1cccc2c1C(=O)c1c(O)c3c(c(O)c1C2=O)C[C@@](O)(C(=O)CO)C[C@@H]3O[C@H]1C[C@H](N)[C@H](O[C@@H]2CCCCO2)[C@H](C)O1` stands > 10 µM (inactive); under `Cc1ccc(S(=O)(=O)NC(=O)NN2CC3CCCC3C2)cc1` (stereo not drawn), > 10 µM (inactive).
With `OC[C@H]1O[C@@H](n2cnc3c(=S)nc[nH]c32)[C@H](O)[C@@H]1O`, the IC50 is > 10 µM (inactive).
The same measure for `CCCCCCCCCCCCCC[N+](C)(C)C`: > 10 µM (inactive); for `CCCCCCCCCCCCCCCC[n+]1ccccc1`: 0.515 µM.
As to `COc1c(C)c2c(c(O)c1C/C=C(\C)CCC(=O)OCCN1CCOCC1)C(=O)OC2`, the IC50 was > 10 µM (inactive).
The same measure for `CCN(CC)CCOc1ccccc1C(=O)CCc1ccccc1`: > 10 µM (inactive).
In the case of `Cc1ccc2c(c1)c1c3n2CCNC3CCC1` (stereo not drawn), the IC50 is > 10 µM (inactive).
Under `CCCCCCCCCCCCNCCNCCNCC(=O)O` stands > 10 µM (inactive); under `O=C(Nc1ccc(Br)cc1)c1cc(Br)cc(Br)c1O`, > 10 µM (inactive); under `COc1cc(NCc2ccc3nc(N)nc(N)c3c2C)cc(OC)c1OC`, > 10 µM (inactive).
Under `COCCOC(=O)C1=C(C)NC(C)=C(C(=O)OC/C=C/c2ccccc2)C1c1cccc([N+](=O)[O-])c1` (stereo not drawn) stands > 10 µM (inactive).
Consider `Cc1nc2ccccc2n1Cc1ccc(Cl)cc1`, for which the IC50 is > 10 µM (inactive).
Under `NCCCC[C@H](N[C@@H](CCc1ccccc1)C(=O)O)C(=O)N1CCC[C@H]1C(=O)O` stands > 10 µM (inactive).
Turning to `Cc1nc(N)nc(N)c1-c1ccc(Cl)c(Cl)c1`, the IC50 is > 10 µM (inactive).
With `Cc1nc2ccc(CN(C)c3ccc(C(=O)N[C@@H](CCC(=O)O)C(=O)O)s3)cc2c(=O)[nH]1`, the IC50 was > 10 µM (inactive).
The same measure for `CC(CC1c2ccccc2CCc2ccccc21)CN(C)C` (stereo not drawn): > 10 µM (inactive); for `CN(C)c1ccc2nc3ccc(=[N+](C)C)cc-3sc2c1`: > 10 µM (inactive).
Take `CCCN(CCC)C(=O)C(CCC(=O)OCCCN1CCN(CCOC(=O)Cc2c(C)n(C(=O)c3ccc(Cl)cc3)c3ccc(OC)cc23)CC1)NC(=O)c1ccccc1` (stereo not drawn): the IC50 was > 10 µM (inactive).
With `COC(=O)Nc1nc2ccc(S(=O)c3ccccc3)cc2[nH]1` (stereo not drawn), the IC50 was 0.241 µM.
On to `COC(=O)Nc1nc2ccc(C(=O)c3cccs3)cc2[nH]1`, for which the IC50 is 0.0134 µM.
Consider `CCCCCCCCCCCCCCCC[N+](C)(C)Cc1ccccc1`, for which the IC50 is > 10 µM (inactive).
The same measure for `CC[C@@H]([C@H](C)O)n1ncn(-c2ccc(N3CCN(c4ccc(OC[C@@H]5CO[C@@](Cn6cncn6)(c6ccc(F)cc6F)C5)cc4)CC3)cc2)c1=O`: > 10 µM (inactive); for `Cc1ccccc1C(=O)Nc1ccc(C(=O)N2CCCC(N(C)C)c3ccccc32)cc1` (stereo not drawn): 3.41 µM.
`CO[C@@]12[C@H](COC(N)=O)C3=C(C(=O)C(C)=C(N)C3=O)N1C[C@@H]1N[C@@H]12`: the IC50 is > 10 µM (inactive).
The same measure for `CCN(CC)CCOc1ccc(/C(=C(\Cl)c2ccccc2)c2ccccc2)cc1`: > 10 µM (inactive).
The same measure for `O=[N+]([O-])c1ccc(O)c2ncccc12`: > 10 µM (inactive); for `CCN(CCCCOC(=O)c1ccc(OC)c(OC)c1)C(C)Cc1ccc(OC)cc1` (stereo not drawn): > 10 µM (inactive); for `CCC(COC(=O)c1cc(OC)c(OC)c(OC)c1)(c1ccccc1)N(C)C` (stereo not drawn): > 10 µM (inactive).
The same measure for `Cc1cc(=O)c2c(O)c3c(O)cc(=O)c4c3c3c(cc(O)c1c23)C(C)(C)C=4O`: > 10 µM (inactive).
Consider `N[C@@H](Cc1ccc(N(CCCl)CCCl)cc1)C(=O)O`, for which the IC50 is > 10 µM (inactive).
The same measure for `CC(=O)Oc1ccc(C2(c3ccc(OC(C)=O)cc3)Oc3ccccc3NC2=O)cc1`: > 10 µM (inactive).
Under `CC(=O)Oc1ccccc1C(=O)Nc1ncc([N+](=O)[O-])s1` stands > 10 µM (inactive); under `Cc1cc(C2CCCCC2)n(O)c(=O)c1`, > 10 µM (inactive).
Under `Cc1cc(O)c2ccccc2c1O` stands > 10 µM (inactive).
Regarding `CC[C@@]1(O)C(=O)OCc2c1cc1n(c2=O)Cc2c-1nc1ccccc1c2/C=N/OC(C)(C)C`, the IC50 is > 10 µM (inactive).
Consider `CCN(CC)CCCC(C)Nc1c2ccc(Cl)cc2nc2ccc(OC)cc12` (stereo not drawn), for which the IC50 was 8.58 µM (inactive).
The same measure for `CCCCCCCCCCCCCCCC[N+](C)(C)CCN(Cc1ccc(OC)cc1)c1ncccn1`: > 10 µM (inactive).
The same measure for `O=C1[C@H]2CCCC[C@H]2C(=O)N1CCCCN1CCN(c2nsc3ccccc23)CC1`: > 10 µM (inactive).
Under `C[n+]1c2cc(N)ccc2cc2ccc(N)cc21` (tested in a mixture with another compound) stands 2.19 µM; under `Oc1c(I)cc(I)c2cccnc12`, > 10 µM (inactive).
Turning to `Oc1ccc([C@H]2CNCc3c2ccc(O)c3O)cc1O`, the IC50 is > 10 µM (inactive).
Under `COCc1c(C(C)C)nc(C(C)C)c(/C=C/[C@@H](O)C[C@@H](O)CC(=O)O)c1-c1ccc(F)cc1` stands > 10 µM (inactive); under `CCN(CC)CCNc1ccc(CO)c2sc3ccccc3c(=O)c12`, > 10 µM (inactive).
Take `CCCOc1ccc2nc(NC(=O)OC)[nH]c2c1`: the IC50 is 0.0775 µM.
The same measure for `CC(C)c1c(C(=O)Nc2ccccc2)c(-c2ccccc2)c(-c2ccc(F)cc2)n1CC[C@@H](O)C[C@@H](O)CC(=O)O`: > 10 µM (inactive); for `O=c1c(-c2ccccc2)c1-c1ccccc1`: > 10 µM (inactive); for `CN(Cc1cnc2nc(N)nc(N)c2n1)c1ccc(C(=O)N[C@@H](CCC(=O)O)C(=O)O)cc1`: > 10 µM (inactive).
Under `CC[C@H](C)C(=O)O[C@H]1C[C@@H](C)C=C2C=C[C@H](C)[C@H](CC[C@@H]3C[C@@H](O)CC(=O)O3)[C@H]21` stands > 10 µM (inactive); under `Nc1ccc2cc3ccc(N)cc3nc2c1`, 2.47 µM; under `COC(=O)Nc1nc2ccc(Sc3ccccc3)cc2[nH]1`, 0.228 µM.
The same measure for `COc1cccc2c1C(=O)c1c(O)c3c(c(O)c1C2=O)C[C@@](O)(C(=O)CO)CC3OC1CC(N2CCOC(OC)C2)C(O)C(C)O1` (stereo partly drawn): 0.0118 µM; for `CCCCCCCCCCOCC(O)CN` (stereo not drawn): > 10 µM (inactive).
With `CCc1nc(N)nc(N)c1-c1ccc(Cl)cc1`, the IC50 is > 10 µM (inactive).
The same measure for `Cc1ccccc1C(OCCN(C)C)c1ccccc1` (stereo not drawn): > 10 µM (inactive); for `C[C@@H](O[C@H]1OCCN(Cc2n[nH]c(=O)[nH]2)[C@H]1c1ccc(F)cc1)c1cc(C(F)(F)F)cc(C(F)(F)F)c1`: > 10 µM (inactive).
The same measure for `COC(=O)Nc1nc2ccc(C(=O)C3CC3)cc2[nH]1`: 0.402 µM; for `CN1CCCC(CC2c3ccccc3Sc3ccccc32)C1` (stereo not drawn): > 10 µM (inactive); for `COc1ccc2cc1Oc1ccc(cc1)C[C@H]1c3c(cc4c(c3Oc3cc5c(cc3OC)CCN(C)[C@@H]5C2)OCO4)CCN1C`: > 10 µM (inactive).
The same measure for `CCCCc1ccc2nc(NC(=O)OC)[nH]c2c1`: 0.00717 µM.
On to `[O-][n+]1ccccc1SSc1cccc[n+]1[O-]`, for which the concentration for half-maximal inhibition (IC50) is 2.23 µM.
Under `CCCCCCCCCCCCCCCCCCNC(=O)OC1CCN(C(=O)OC[C@H](COC(=O)N(Cc2cccc[n+]2CC)C(=O)c2ccccc2OC)OC)CC1` stands > 10 µM (inactive).
Under `CSc1ccc2c(c1)C(N1CCN(C)CC1)Cc1ccccc1S2` (stereo not drawn) stands > 10 µM (inactive); under `NC(N)=NN=C(/C=C/c1ccc([N+](=O)[O-])o1)/C=C/c1ccc([N+](=O)[O-])o1`, > 10 µM (inactive).
